{"source": "patent US11299715B2", "about": "“Use of iNOS inhibitors to increase viral yield in culture” (priority 2013, dated 2022)", "key": {"[1]": {"system": "rHSV-1 d27-1 (d27-1) vector", "test": "ATA-HSV protocol: rHSV-1 d27-1 vector yield in V27 cell supernatants", "format": "cell-based, HSV-1", "text": "The wtHSV-1 KOS strain and the ICP27-deficient derivatives of the wtHSV-1 KOS strain: vectors d27-1 (Rice and Knipe, J. Virol. (1990) 64:1704-1715), rHSV-rep2/cap2 and rHSV-EGFP (Kang et al., Gene Ther. (2009) 16:229-239) and their producer ICP27-complementing V27 cell line were obtained from AGTC (Alachua, Fla.). The wtHSV-1 MacIntyre strain, purchased from Advanced Biotechnologies Inc. (ABI, Columbia Md.) and wtHSV-1 KOS strain were propagated in Vero, 293 or HeLa cell lines. Infectious vector particles were harvested 72 hr postinfection by recovering culture supernatant. The titers of HSV-1 stocks in DNase resistant particles/ml (DRP/ml) were determined by Taqman assay. Viral genomes within crude culture medium were quantified via treatment in the presence of DNase I (50 U/ml final; Promega) at 37° C. for 60 min, followed by proteinase K (Invitrogen) digestion (1 U/ml) at 50° C. for 60 min, and then denatured at 95° C. for 30 min. Linearized plasmid pZero 195 UL36 (obtained from AGTC, Inc., Alachua, Fla.) was used to generate standard curves.\nATA (Sigma-A1895 Aurintricarboxylic acid practical grade, ≥85% (titration), powder) stock solution was generated as 500 μM concentration in 100 mM sodium bicarbonate water solution. ATA stock solution was further diluted in DMEM+/−10% fetal bovine serum (FBS, Hyclone, Waltham, Mass.) into concentration ranges of […] ATA (8.5-21 μgATA/ml). The HSV-1 infection at multiplicity of infection of 0.15 (MOI=0.15) (typically 6×10^5 cells in a 6-well plate) was performed in 40% (⅖ vol) of the total final media volume for 1-2 hrs and the remaining media (60% or ⅗ of the total final volume) was added during the dilution step. The cells were then incubated 72 hours and supernatant harvested to perform forming units per milliliter (PFU/ml) and DRP/ml titer assays.\nIn order to test whether ATA could increase the rHSV-1 d27-1 (d27-1) vector yield in V27 cells, ATA was applied to the media during the infection (Step 1) or dilution steps (Step 2) (FIG. 2A). The d27-1 infection at MOI=0.15 was performed in ⅖ of the final media volume and the remaining ⅗ of the media was added during dilution step.\nIn order to determine which concentrations and conditions for ATA addition have impact on HSV yields, the following experiments were conducted. ATA at varying concentrations was added to V27 cultures infected with the HSV-1 d27-1 vectors in either six-well plates (FIG. 2B) or T150 flasks (FIG. 2C) in two steps as follows. In Step 1 of the protocol, V27 cells were infected with 0.15 MOI of the rHSV vector in ⅖ of the final volume of DMEM with 10% FBS and 0-60 μM ATA concentrations. Cells were cultured for 1-2 hours at 37° C. to complete Step 1. In Step 2, the concentration of ATA was reduced to a range between 12-24 μM by the addition of ⅗ of final media volume. Cells were cultured for 70-74 hours at 37° C. and the supernatant harvested. Viral titers were expressed as Dnase Resistant Particles (DRP/ml) or Plaque Forming Units (pfu/ml) per ml and were determined as described above.\nIn this experiment, V27 cells were seeded into six well plates the day prior to infection at 6×10^5 cells/well. HSV 2× infection solution was prepared as follows: HSV-1 d27.1 stock was added to DMEM (no FBS) at 2× titer that the cells would be infected at final MOI 0.15. Several 2×ATA solution combinations were prepared containing either 100 μM or 40 μM ATA in DMEM and without FBS or with 20% FBS.\nHSV 2× infection solution was mixed equal volumes of either DMEM−/+20% FBS or desired 2×ATA solution−/+20% FBS, vortexed, and 1 ml of infectious inoculum per well was added in Step 1. If wells contained ATA in Step 1, the concentration was 50 μM and all wells were incubated for 1-2 hrs. In Step 2, additional 1.5 ml of DMEM combinations−/+40 μM ATA and −/+20% FBS were added. If wells contained ATA whether in Step 1 or Step 2, the final ATA concentration was 20 μM. […]"}, "rAAV-GFP vector": {"system": "rAAV-GFP vector", "test": "rAAV production by rHSV-rep2/cap2 and rHSV-EGFP co-infection of 293 cells", "format": "cell-based, AAV", "description": "293 cells (2.5×10^6) were simultaneously co-infected with both rHSV-rep2/cap2 and rHSV-EGFP vectors as described by Kang et al., Gene Ther (2009) 16:229-239. At 2-4 hr post infection, infectious medium was exchanged with DMEM+10% FBS equivalent to double the preinfection culture volume. At the time of harvest, the cell pellet was frozen at −80° C. DRP titers were quantified by real-time polymerase chain reaction (qPCR) in a96-well block thermocycler (Applied Biosystems; 7500 Real Time PCR system). Crude samples were subjected to three cycles of freezing and thawing, then incubated in the presence of Benzonase (250 U/ml), 2 mM MgCl2, 1% final concentration protein grade Tween 80 (Calbiochem) and incubated at 37° C. for 60 min, followed by 0.25% Trypsin (Gibco) digestion at 50° C. for 60 min. Finally, treatment with DNase I (50 U/ml; Promega) at 37° C. for 30 min, and then denatured at 95° C. for 20 min. Linearized plasmidpDC67/+SV40 was used to generate standard curves. The primer-probe set was specific for the simian virus 40 (SV40) poly(A) sequence: rAAV-F: 5′-[…]-3′ (SEQ ID NO:4); rAAV-R: 5′-[…]-3′ (SEQ ID NO:5); rAAV-Probe: 5′ 6-FAM-[…]-TAMRA-3′ (SEQ ID NO:6).\nIn order to determine whether the presence of ATA during HSV production impacted the yield of rAAV virions produced using HSV vectors, the following experiment was performed showing rAAV titers affected by ATA residue present from rHSV-1 stocks produced in 293 cells (FIG. 5A). […] One-way ANOVA; Tukey's-test:*p<0.05; 20 μM ATA vs. No ATA; n=4 independent experiments.\nThis effect was not observed when the ATA concentrations were higher then 20 μM (FIG. 5B)."}, "[2]": {"conditions": "serum-free media, ATA at Step 2, 20 μM final"}, "[3]": {"conditions": "serum-free media, ATA starting at 3 μM at Step 1"}}}
{"smiles": "O=C(O)C1=CC(=C(c2ccc(O)c(C(=O)O)c2)c2ccc(O)c(C(=O)O)c2)C=CC1=O", "note": "[ATA, 5-((3-carboxy-4-hydroxyphenyl)(3-carboxy-4-oxo-2,5-cyclohexadien-1-ylidene)methyl)-2-hydroxybenzoic acid]", "values": [{"measurement": "d27-1 titer in supernatant (PFU/ml)", "setting": "[1]; 50 μM ATA at infection step, 20 μM f.c., 72 h.p.i., control 1.4±0.2×10^7", "result": "1.2±0.3×10^8 PFU/ml"}, {"measurement": "d27-1 titer in supernatant (DRP/ml)", "setting": "[1]; 50 μM ATA at infection step, 20 μM f.c., 72 h.p.i., control 4.0±0.3×10^7", "result": "3.7±0.2×10^8 DRP/ml"}, {"measurement": "increase of d27-1 titers in supernatant", "setting": "[1]; 50 μM ATA at infection step, 20 μM f.c., harvest 72 h.p.i.", "result": "about 10 times"}, {"measurement": "Cytopathic effect (CPE) at the time of harvest", "setting": "[1]; 72 hpi, V27 monolayers, 100% CPE in the absence of ATA", "result": "20-60%"}, {"measurement": "HSV titers versus cultures without ATA", "setting": "[1]; ATA added in Step 1 or Step 2, six-well plates and T150 flasks, 10% FBS", "result": "significantly higher"}, {"measurement": "HSV-1 plaque formation or cell lysis in V27 cell monolayers", "setting": "[1]; ATA treatment", "result": "delayed"}, {"measurement": "DRP titer, ATA in serum-free media at dilution step (Step 2)", "setting": "[1]; [2]", "result": "reduced below control level"}, {"measurement": "PFU/ml titer, ATA in serum-free media at dilution step (Step 2)", "setting": "[1]; [2]", "result": "below detection"}, {"measurement": "DRP/ml titer, ATA in serum-free media at infection Step 1", "setting": "[1]; [3]", "result": "below the detection limit"}, {"measurement": "PFU/ml titer, ATA in serum-free media at infection Step 1", "setting": "[1]; [3]", "result": "below the detection limit"}, {"measurement": "d27-1 titers with ATA (DRP/ml)", "setting": "[1]; summary statement", "result": "≥ 4×10^8 DRP/ml"}, {"measurement": "d27-1 titers with ATA (PFU/ml)", "setting": "[1]; summary statement", "result": "at least 1×10^8 PFU/ml"}, {"measurement": "increase of d27-1 yields in V27 cells supernatants", "setting": "[1]; summary statement", "result": "3-5 times"}, {"measurement": "rAAV titer, ATA spiked into 293 cell media during co-infection", "setting": "rAAV-GFP vector; 10 μM ATA, 2 hrs co-infection step", "result": "increase"}, {"measurement": "rAAV titers using HSV stock prepared with 20 μM ATA", "setting": "rAAV-GFP vector; 20 μM ATA added during infection", "result": "slightly increased"}, {"measurement": "rAAV titer increase at higher spiked ATA concentrations", "setting": "rAAV-GFP vector; ATA higher than 20 μM spiked into 293 cell media", "result": "not observed"}, {"measurement": "influence of ATA in rHSV-1 stocks on rAAV yield", "setting": "rAAV-GFP vector; ATA present in rHSV-1 stocks", "result": "did not negatively influence"}, {"measurement": "increase of rAAV DRP/ml titer versus No ATA control", "setting": "rAAV-GFP vector; rHSV-rep2/cap2 stock prepared with 20 μM ATA (Step 1), about 3 μM ATA during rAAV production, n=4", "result": 1.3, "unit": "times"}, {"measurement": "rAAV titer with rHSV-rep2/cap2 stock prepared with 12 μM ATA", "setting": "rAAV-GFP vector; stock prepared with 12 μM ATA, n=4", "result": "No significant rAAV titer increase"}]}
